Measurements taken from patent publication US9216999B2, “Substituted pyrrolo[2,3-h][1,6]naphthyridines and compositions thereof as JAK inhibitors” (priority 2011, dated 2015).
Like-named read-outs stand apart in the source and are kept apart here.

How the values were obtained:
Assay type in all cases: biochemical
[1] = molecular target: JAK2 (Homo sapiens (Human), UniProt O60674); assay: Enzyme assay (Assay Example^a 1), JAK2
[2] = molecular target: Tyk2 (Homo sapiens (Human), UniProt P29597); assay: Enzyme assay (Assay Example^a 1), Tyk2; details: ATP 100 μM
[3] = molecular target: JAK1 (Homo sapiens (Human), UniProt P23458); assay: Enzyme assay (Assay Example^a 1), JAK1; details: ATP 100 μM
[4] = molecular target: JAK3 (Homo sapiens (Human), UniProt P52333); assay: Enzyme assay (Assay Example^a 1), JAK3
Chain of JAK3 (P52333 whole entry): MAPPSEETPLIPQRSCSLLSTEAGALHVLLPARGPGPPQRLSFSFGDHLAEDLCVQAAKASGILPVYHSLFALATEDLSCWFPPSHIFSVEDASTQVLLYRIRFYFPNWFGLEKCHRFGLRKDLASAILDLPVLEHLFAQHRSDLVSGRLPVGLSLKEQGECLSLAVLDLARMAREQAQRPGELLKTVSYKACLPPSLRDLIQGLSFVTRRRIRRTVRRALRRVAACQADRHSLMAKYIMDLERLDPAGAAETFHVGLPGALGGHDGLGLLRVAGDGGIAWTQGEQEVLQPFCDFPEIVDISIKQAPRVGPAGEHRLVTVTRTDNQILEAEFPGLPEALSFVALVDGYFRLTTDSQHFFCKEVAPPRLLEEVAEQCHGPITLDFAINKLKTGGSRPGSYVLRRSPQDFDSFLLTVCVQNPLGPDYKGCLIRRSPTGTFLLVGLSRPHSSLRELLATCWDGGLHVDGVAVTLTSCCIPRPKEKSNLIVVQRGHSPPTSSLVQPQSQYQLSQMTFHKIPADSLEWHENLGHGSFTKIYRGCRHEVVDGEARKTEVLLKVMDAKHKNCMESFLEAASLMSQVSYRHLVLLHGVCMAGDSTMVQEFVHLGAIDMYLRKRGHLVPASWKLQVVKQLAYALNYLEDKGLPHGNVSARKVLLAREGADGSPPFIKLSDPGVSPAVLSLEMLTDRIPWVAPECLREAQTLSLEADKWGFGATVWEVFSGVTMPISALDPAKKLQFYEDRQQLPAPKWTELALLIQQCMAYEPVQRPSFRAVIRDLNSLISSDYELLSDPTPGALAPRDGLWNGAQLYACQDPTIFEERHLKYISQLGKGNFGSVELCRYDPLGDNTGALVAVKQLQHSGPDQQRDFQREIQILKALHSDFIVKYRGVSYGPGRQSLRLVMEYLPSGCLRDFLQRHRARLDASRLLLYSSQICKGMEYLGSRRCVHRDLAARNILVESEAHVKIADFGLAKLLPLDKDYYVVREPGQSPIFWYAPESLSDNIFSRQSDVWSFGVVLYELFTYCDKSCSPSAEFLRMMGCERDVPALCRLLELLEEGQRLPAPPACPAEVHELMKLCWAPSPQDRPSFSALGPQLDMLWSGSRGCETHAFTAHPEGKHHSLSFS

Chain of Tyk2 (P29597 whole entry): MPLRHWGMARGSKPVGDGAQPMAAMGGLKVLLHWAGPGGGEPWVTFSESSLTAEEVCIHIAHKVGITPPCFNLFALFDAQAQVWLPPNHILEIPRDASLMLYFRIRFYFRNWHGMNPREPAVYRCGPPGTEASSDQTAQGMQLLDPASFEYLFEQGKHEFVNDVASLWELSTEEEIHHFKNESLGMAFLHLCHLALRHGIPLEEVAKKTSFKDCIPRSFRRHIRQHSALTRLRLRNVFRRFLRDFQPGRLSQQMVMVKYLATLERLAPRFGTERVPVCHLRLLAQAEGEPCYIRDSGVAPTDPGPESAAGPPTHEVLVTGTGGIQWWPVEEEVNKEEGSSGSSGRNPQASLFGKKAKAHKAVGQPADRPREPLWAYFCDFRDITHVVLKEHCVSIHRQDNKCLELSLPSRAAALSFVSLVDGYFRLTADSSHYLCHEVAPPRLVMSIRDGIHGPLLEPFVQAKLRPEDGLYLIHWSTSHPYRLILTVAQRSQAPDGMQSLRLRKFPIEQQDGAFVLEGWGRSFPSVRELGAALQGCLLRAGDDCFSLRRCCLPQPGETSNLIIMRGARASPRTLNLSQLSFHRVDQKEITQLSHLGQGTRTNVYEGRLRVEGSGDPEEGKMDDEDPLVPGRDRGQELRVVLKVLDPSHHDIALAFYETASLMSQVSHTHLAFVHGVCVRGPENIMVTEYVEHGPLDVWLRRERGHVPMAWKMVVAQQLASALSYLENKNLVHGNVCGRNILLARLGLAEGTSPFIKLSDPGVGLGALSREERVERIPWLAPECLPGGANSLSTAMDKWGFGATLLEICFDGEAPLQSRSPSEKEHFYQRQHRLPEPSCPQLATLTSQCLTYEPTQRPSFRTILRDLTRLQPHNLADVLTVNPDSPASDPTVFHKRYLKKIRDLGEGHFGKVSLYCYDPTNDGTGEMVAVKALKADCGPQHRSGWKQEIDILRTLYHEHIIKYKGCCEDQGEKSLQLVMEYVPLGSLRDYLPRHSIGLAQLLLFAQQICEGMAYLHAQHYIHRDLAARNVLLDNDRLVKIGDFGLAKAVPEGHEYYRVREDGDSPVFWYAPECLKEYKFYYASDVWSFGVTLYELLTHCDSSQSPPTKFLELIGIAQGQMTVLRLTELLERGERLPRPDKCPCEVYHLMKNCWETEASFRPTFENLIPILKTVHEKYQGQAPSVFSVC

IC50 ([1]; ATP 100 μM, Table^a 154) [µM]	IC50 ([2]; Table^a 154) [µM]	IC50 ([3]; Table^a 154) [µM]	IC50 ([4]; ATP 100 μM, Table^a 154) [µM]	SMILES	IC50 [1] [µM]	IC50 [2] [µM]	IC50 [3] [µM]	IC50 [4] [µM]	IC50 ([1]; ATP 100 μM) [µM]	IC50 ([4]; ATP 100 μM) [µM]
–	–	–	–	FC(F)(Br)CN[C@H]1CC[C@H](c2nnn3cnc4[nH]ccc4c23)CC1 [382b, trans-N-(2-bromo-2,2-difluoroethyl)-4-(7H-pyrrolo[3,2-e][1,2,3]triazolo[1,5-c]pyrimidin-1-yl)cyclohexanamine]	0.0028	0.013	0.00031	0.07	–	–
–	–	–	–	FC(F)CNC[C@H]1CC[C@H](c2nnn3cnc4[nH]ccc4c23)CC1 [compound 255, N-{[trans-4-(7H-pyrrolo[3,2-e][1,2,3]triazolo[1,5-c]pyrimidin-1-yl)cyclohexyl]methyl}-2,2-difluoroethanamine]	–	0.14	0.0025	–	0.015	0.24
–	–	–	–	c1cc2c(ncn3nnc([C@H]4CC[C@H](CNC5CCC5)CC4)c23)[nH]1 [compound 283, N-{[trans-4-(7H-pyrrolo[3,2-e][1,2,3]triazolo[1,5-c]pyrimidin-1-yl)cyclohexyl]methyl}cyclobutanamine]	–	0.23	0.014	–	0.11	0.9
0.011	0.14	0.0034	0.31	Fc1cnccc1CN1CCC(c2nnn3cnc4[nH]ccc4c23)CC1 [compound 161, 1-{1-[(3-fluoropyridin-4-yl)methyl]piperidin-4-yl}-7H-pyrrolo[3,2-e][1,2,3]triazolo[1,5-c]pyrimidine]	–	–	–	–	–	–
–	–	–	–	N#Cc1ccc(NC[C@H]2CC[C@H](c3nnn4cnc5[nH]ccc5c34)CC2)c2ccccc12 [compound 248, 4-({[trans-4-(7H-pyrrolo[3,2-e][1,2,3]triazolo[1,5-c]pyrimidin-1-yl)cyclohexyl]methyl}amino)-1-naphthonitrile]	–	> 1	0.041	–	0.14	> 1
–	–	–	–	S=c1[nH]c(C2CCCCC2)c2c3cc[nH]c3ncn12 [compound 8]	–	0.036	0.02	–	0.03	0.43
–	–	–	–	CC(=O)N[C@H]1CCN(C[C@H]2CC[C@H](c3nnn4cnc5[nH]ccc5c34)CC2)C1 [compound 319, N-((S)-1-{[trans-4-(7H-pyrrolo[3,2-e][1,2,3]triazolo[1,5-c]pyrimidin-1-yl)cyclohexyl]methyl}pyrrolidin-3-yl)acetamide]	–	> 1	0.027	–	0.23	> 1
–	–	–	–	OC(CNC[C@H]1CC[C@H](c2nnn3cnc4[nH]ccc4c23)CC1)C(F)(F)F (stereo partly drawn) [compound 343, 3-({[trans-4-(7H-pyrrolo[3,2-e][1,2,3]triazolo[1,5-c]pyrimidin-1-yl)cyclohexyl]methyl}amino)-1,1,1-trifluoropropan-2-ol]	–	0.44	0.01	–	0.063	0.33
–	–	–	–	CC(C)(C)OC(=O)N1CC(CC#N)(NC[C@H]2CC[C@H](c3nnn4cnc5[nH]ccc5c34)CC2)C1 [compound 428, tert-Butyl 3-({[trans-4-(7H-pyrrolo[3,2-e][1,2,3]triazolo[1,5-c]pyrimidin-1-yl)cyclohexyl]methyl}amino)-3-(cyanomethyl)azetidine-1-carboxylate]	–	> 1	0.19	–	0.75	> 1
–	–	–	–	N#C[C@H]1CCN(C(=O)[C@H]2CC[C@H](c3nnn4cnc5[nH]ccc5c34)CC2)C1 [compound 357, (S)-1-[trans-4-(7H-pyrrolo[3,2-e][1,2,3]triazolo[1,5-c]pyrimidin-1-yl)cyclohexanecarbonyl]pyrrolidine-3-carbonitrile]	–	0.87	0.067	–	0.33	> 1
–	–	–	–	N#CCC(=O)NC[C@H]1CC[C@H](c2nnn3cnc4[nH]ccc4c23)CC1 [compound 372, N-{[trans-4-(7H-Pyrrolo[3,2-e][1,2,3]triazolo[1,5-c]pyrimidin-1-yl)cyclohexyl]methyl}-2-cyanoacetamide]	–	0.41	0.0041	–	0.016	0.23
–	–	–	–	c1cnc2cc(CN3CCC(c4nnn5cnc6[nH]ccc6c45)CC3)ccc2n1 [compound 218, 1-[1-(quinoxalin-6-ylmethyl)piperidin-4-yl]-7H-pyrrolo[3,2-e][1,2,3]triazolo[1,5-c]pyrimidine]	–	> 1	0.028	–	0.14	> 1
–	–	–	–	OC12CC3CC(C1)C(NC[C@H]1CC[C@H](c4nnn5cnc6[nH]ccc6c45)CC1)C(C3)C2 (stereo partly drawn) [compound 304, (1S,3R,4s,5S,7S)-4-({[trans-4-(7H-pyrrolo[3,2-e][1,2,3]triazolo[1,5-c]pyrimidin-1-yl)cyclohexyl]methyl}amino)adamantan-1-ol]	–	> 1	0.049	–	0.27	> 1
0.038	0.38	0.011	0.61	CS(=O)(=O)c1ccc2c(c1)CCN2C[C@H]1CC[C@H](c2nnn3cnc4[nH]ccc4c23)CC1 [compound 189, 1-(trans-4-{[5-(methylsulfonyl)indolin-1-yl]methyl}cyclohexyl)-7H-pyrrolo[3,2-e][1,2,3]triazolo[1,5-c]pyrimidine]	–	–	–	–	–	–
0.011	0.3	0.0016	0.08	Fc1cc(CN2CCC(c3nnn4cnc5[nH]ccc5c34)CC2)ccc1Cl [compound 159]	–	–	–	–	–	–
–	–	–	–	O=C(NCCO)[C@H]1CC[C@H](c2nnn3cnc4[nH]ccc4c23)CC1 [compound 360, trans-N-(2-hydroxyethyl)-4-(7H-pyrrolo[3,2-e][1,2,3]triazolo[1,5-c]pyrimidin-1-yl)cyclohexanecarboxamide]	–	0.33	0.026	–	0.1	> 1
–	–	–	–	O=C(NC1CC1)[C@H]1CC[C@H](c2nnn3cnc4[nH]ccc4c23)CC1 [compound 359, trans-N-cyclopropyl-4-(7H-pyrrolo[3,2-e][1,2,3]triazolo[1,5-c]pyrimidin-1-yl)cyclohexanecarboxamide]	–	0.56	0.042	–	0.22	> 1
–	–	–	–	IC[C@H]1CC[C@H](c2nnn3cnc4[nH]ccc4c23)CC1 [compound 367]	–	0.0073	0.00099	–	0.0043	0.054
–	–	–	–	O[C@@H]1Cc2ccccc2[C@@H]1NC1CCC(c2nnn3cnc4[nH]ccc4c23)CC1 (mixture of isomers) [compound 379, (1S,2R)-1-{[4-(7H-pyrrolo[3,2-e][1,2,3]triazolo[1,5-c]pyrimidin-1-yl)cyclohexyl]amino}-2,3-dihydro-1H-inden-2-ol]	–	0.29	0.013	–	0.11	0.66

SMILES	IC50 ([1]; ATP 100 μM, Table^a 154) [µM]	IC50 ([2]; Table^a 154) [µM]	IC50 ([3]; Table^a 154) [µM]	IC50 ([4]; ATP 100 μM, Table^a 154) [µM]	IC50 [1] [µM]	IC50 [2] [µM]	IC50 [3] [µM]	IC50 [4] [µM]	IC50 ([1]; ATP 100 μM) [µM]	IC50 ([4]; ATP 100 μM) [µM]
Cc1cc(NC(=O)N2CCCC(c3nnn4cnc5[nH]ccc5c34)C2)sn1 (racemic) [compound 21]	0.11	0.71	0.015	0.9	–	–	–	–	–	–
OCCOc1ccc(CN2CCC(c3nnn4cnc5[nH]ccc5c34)CC2)cc1 [compound 168, 2-(4-{[4-(7H-pyrrolo[3,2-e][1,2,3]triazolo[1,5-c]pyrimidin-1-yl)piperidin-1-yl]methyl}phenoxy)ethanol]	0.71	> 1	0.084	> 1	–	–	–	–	–	–
